The values that follow come from article PMC11413853, “Discovery of VU6007496: Challenges in the Development of an M1 Positive Allosteric Modulator Backup Candidate” (ACS Chemical Neuroscience, 2024).

“Also recorded” adds a separate entry of the source.

One series in a line: MET ID in human liver S9. It is filed as in vitro ADME. To be noted: based on MS peak areas. The text has this:
Eight oxidative metabolites were identified, with the major metabolite in both rat and human being Metabolite A (VU6036463, 24), the result of oxidative N-demethylation of the southern pyrazole (Scheme 4). The majority of other oxidative metabolism occurred on the tetrahydropyran moiety and included ring opening, but there was no amide hydrolysis observed.[21]

A further series is described as follows: Hepatocyte MET ID, dog. To be noted: 4-h incubation. The format is in vitro ADME. The text has this: (§1) More concerning were the results generated via outsourced multispecies hepatocyte MET ID, which were drastically different than the liver S9MET ID. The extent of metabolism for VU6007496 with rat, dog, monkey and human hepatocytes was 64.7, 51.5, 63.9 and 99.5%, respectively (Figure 8). […] In human hepatocytes, PAM 11 was metabolized primarily to Metabolite A (24), the result of oxidative N-demethylation of the southern pyrazole. The other minor metabolites were oxidation on the tetrahydropyran moiety and included ring opening (Metabolite F, 25).[21]

The nature of series [1]: Rat satellite PK study, 3 mg/kg p.o. To be noted: 3 mg/kg p.o. (NOR MED). It is filed as in vivo. The text has this:
Historically, our PK/PD for M1 PAMs in NOR has a strong correlation with total brain as opposed to unbound levels, with MEDs typically 0.25 to 0.4 of the rat EC50.[21] This may be due to higher endogenous cholinergic tone in healthy animals, and the in vitro PAM EC50s being derived from an arbitrarily selected EC20 concentration of ACh as a subthreshold value.

The test system of another series is Neuropeptide Y Y1. In words: Eurofins radioligand binding. Further details: species or system Human. To be noted: specific binding.
Series [2] deals with layer V medial prefrontal cortex (mPFC). In words: Field electrophysiology, layer V medial prefrontal cortex slices. Further details: species or system mouse. To be noted: 3 μM bath application 20 min; recorded layer V, stimulation layer II/III. The procedure: PAMs 11 and 12 were next evaluated in our rat IV plasma: brain level cassette paradigm (0.25 mg/kg compound, 1 mg/kg total dose, 10.1% EtOH:40.4% PEG400:49.5% DMSO) sampled at a set 15 min time point to assess CNS penetration. […] As mice are the most sensitive species to cholinergic mechanisms,[11],[13],[23],[24] we placed a high-throughput phenotypic seizure liability assay into the work-flow in which potent ago-PAMs, such as 2–5,[8]−[15] display robust Racine scale 4/5 behavioral convulsions that develop within minutes of dosing and last for the 3 h duration of the study. […] In parallel, we performed electrophysiology studies in mouse native tissue layer V medial prefrontal cortex (mPFC). […]
Rats were habituated for 10 min for 2 consecutive days in an empty novel object recognition (NOR) arena consisting of dark-colored plexiglass box (40 × 64 × 33 cm3). […] The rats were then returned to the arena in which one of the previously exposed (familiar) objects was replaced by a novel object and were video recorded for 5 min while they explored the two objects. Time spent exploring each object was scored by an observer blinded to the experimental conditions and the recognition index was calculated as [(time spent exploring novel object) – (time spent exploring familiar object)]/total time exploring objects. […]

A further series deals with Serotonin (5-HT1A). The series is described as follows: Eurofins radioligand binding. More on the design: species or system Human. To be noted: specific binding.
A further series relates to Adrenergic α2A. In words: Eurofins radioligand binding. More on the design: species or system Human. To be noted: specific binding.
A further series deals with Purinergic P2X. The series is described as follows: Eurofins radioligand binding. To be noted: specific binding. More on the design: species or system Rat.
A further series in a line: Hepatocyte MET ID, rat. To be noted: 4-h incubation. It is filed as in vitro ADME.
Source text: as §1

A further series concerns Histamine H1. In words: Eurofins radioligand binding. To be noted: specific binding. Further details: species or system Human.
Series [3] has as its system Platelet Activating Factor (PAF). The series is described as follows: Eurofins radioligand binding. More on the design: species or system Human. To be noted: specific binding.
In another series the test system is T1, hCav3.2.
T1 construct: Charles River
The series is described as follows: Ion channel current (Charles River Study 200609.WVN). It is filed as cell-based, human. To be noted: 10 μM; n 4. The text has this:
(§2) Table S2. Effects of VU6007496 on Ion Channel Current (Charles River Study 200609.WVN)
(§3) Ion Channel Conc Mean % Standard Standard n Individual Data
(§4) (μM) Inhibition Deviation Error Points (% Inhibition)

In another series the test system is T2, hKv1.3.
T2 construct: Charles River
Described as above. The format is cell-based, human. To be noted: 10 μM; n 4.
Source text: as §2, §3, §4

Another series deals with T3, hNav1.5 (Phasic).
T3 construct: Charles River Study 200609.WVN
The description is as above. It is filed as cell-based, human. To be noted: 10 μM, n 4.
Source text: as §2, §3, §4

Another series deals with T4, hCav1.2.
T4 construct: Charles River
The description is as above. It is filed as cell-based, human. To be noted: 10 μM; n 4.
Source text: as §2, §3, §4

For a further series, the system named is T5, hHCN2.
T5 construct: Charles River
Described as above. The format is cell-based, human. To be noted: 10 μM; n 3.
Source text: as §2, §3, §4

A further series relates to T6, hKvLQT1/minK.
T6 construct: Charles River
Described as above. It is filed as cell-based, human. To be noted: 10 μM; n 4.
Source text: as §2, §3, §4

Series [4] relates to Nicotinic Acetylcholine α3β4. In words: Eurofins radioligand binding. Further details: species or system Human. To be noted: specific binding.
The test system of another series is Adenosine A1. In words: Eurofins radioligand binding. Further details: species or system Human. To be noted: specific binding.

What is called % Inhibition is the change of the read-out against control, counted positive when it falls. Turning to `Cn1ccc(-c2ccc(Cc3cc(C(=O)NC4CCOCC4)nc4ccn(C)c34)cc2)n1` [compound 11], the “extent of metabolism, human liver S9” value in the series “MET ID in human liver S9” turned out to be 58.1%. In addition, the “extent of metabolism, dog hepatocytes” value in “Hepatocyte MET ID, dog” was determined as 51.5%. The same compound registered a total brain concentration in series [1] of 990 nM. The compound also yielded an unbound brain concentration in [1] of 39.8 nM. Besides, the “% Inhibition at 10 µM” value in the series on Neuropeptide Y Y1 is listed as -10%; with Serotonin (5-HT1A) it was 7%; with Adrenergic α2A, -7%; with Purinergic P2X, 17%; in the series with Histamine H1, 5%; in series [3], -13%. The “% Inhibition at 10 µM” value in series [4] amounted to 6%; in the series with Adenosine A1, 10%. Further, the “change in fEPSP slope (long-term depression)” value in [2] is “did not induce significant changes; also recorded: no significant change in fEPSP slope”. For the same compound, in “Hepatocyte MET ID, rat”, the “extent of metabolism, rat hepatocytes” value stood at 64.7%. Also, the “Mean % Inhibition” value with hCav3.2 worked out at 4.2%; in the series on hKv1.3 it was 16.5%; with hNav1.5 (Phasic), 11.4%; with hCav1.2, 12.8%; with hHCN2, 4.9%; in the series on hKvLQT1/minK, 13.5%.
